From article PMC10005967, “Discriminative binding of tau PET tracers PI2620, MK6240 and RO948 in Alzheimer’s disease, corticobasal degeneration and progressive supranuclear palsy brains” (Molecular Psychiatry, 2022)
Several values for one entry are separate records, joined by “and”; a condition that tells them apart may be missing. Equal values may be shown once. Read-outs that look alike come from different tables or passages of the source.

Legend:
[1] = target: tau, AD FC brain homogenates (Homo sapiens, UniProt P10636); assay: ^3H-PI2620 competitive binding assay in AD frontal cortex brain homogenates; conditions: for proportion of HA binding sites / proportion of SHA binding sites: vs 0.6 nM ^3H-PI2620; for IC50: vs 0.6 nM ^3H-PI2620, 2-site competition model
tau, AD FC brain homogenates, sequence (P10636 623-708 limits assumed): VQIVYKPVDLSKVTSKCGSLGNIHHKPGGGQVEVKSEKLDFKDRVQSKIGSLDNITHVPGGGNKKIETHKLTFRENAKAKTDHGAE
Procedure: (§1) Frozen human brain tissue from eleven AD, five CBD, four PSP and eight control patients was provided by the Netherlands Brain Bank (Amsterdam, Netherlands). Frozen human brain tissue from PSP case number 26 was provided by Professor Bernadino Ghetti, the Neuropathology of Dementia Laboratory, Indiana University School of Medicine (Indianapolis, IN, USA) (see Table 1 for demographic data). Brain homogenates were prepared by homogenising the brain tissue in phosphate buffer saline (PBS; pH 7.4) containing 0.1% BSA (250 mg tissue/mL) and protease/phosphatase inhibitors (10 μL/mL); aliquots were stored at −80 °C until used in the binding experiments.
Competitive binding assays on four AD FC brain homogenates [two early-onset (EO) AD and two late-onset (LO) AD; 0.5 mg tissue] were performed using 0.6 nM of ^3H-PI2620 and increasing concentrations (1 × 10^−18 M to 1 × 10^−6 M) of unlabelled PI2620, unlabelled MK6240 and unlabelled RO948 for 2 h at RT. The binding assay was accomplished as described above. The half-maximal inhibitory concentration (IC50) was measured using the 2-site competition model in GraphPad Prism 9 software.

[2] = system: tau, AD brain homogenates; conditions: cited from earlier work; for high-affinity (HA) binding site: AD brain homogenates
tau, PSP FC homogenates = tau, PSP FC homogenates (Homo sapiens, UniProt P10636); assay: ^3H-PI2620 competitive binding assay in PSP frontal cortex brain homogenates; conditions: vs 0.6 nM ^3H-PI2620, only one binding site
tau, PSP FC homogenates, sequence (P10636 561-698 limits assumed): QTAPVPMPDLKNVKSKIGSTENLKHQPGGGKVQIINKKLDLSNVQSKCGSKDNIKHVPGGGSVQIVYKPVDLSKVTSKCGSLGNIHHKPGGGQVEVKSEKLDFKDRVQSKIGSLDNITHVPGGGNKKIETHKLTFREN
Procedure: as §1
(§2) Competitive binding assays were also carried out under the same conditions, on three PSP FC homogenates and three CBD FC homogenates using 0.6 nM and 1 nM of ^3H-PI2620, respectively, in the presence of increasing concentrations of unlabelled PI2620 (1 × 10^−18 M to 1 × 10^−6 M). The 2-site competition model in GraphPad Prism 9 software was used to plot the AD, CBD, and PSP data.

tau, CBD FC homogenates = tau, CBD FC homogenates (Homo sapiens, UniProt P10636); assay: ^3H-PI2620 competitive binding assay in CBD frontal cortex brain homogenates
tau, CBD FC homogenates, sequence (P10636 561-697 limits assumed): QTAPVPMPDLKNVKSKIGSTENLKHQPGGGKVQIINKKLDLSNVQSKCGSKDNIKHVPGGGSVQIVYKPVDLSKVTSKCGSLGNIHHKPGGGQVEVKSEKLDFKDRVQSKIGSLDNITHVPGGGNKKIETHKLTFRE
Procedure: as §1, §2

[3] = system: tau, post-mortem PSP brain tissue; conditions: cited from earlier work
[4] = read-out: IC50(1), super-high affinity (SHA) site
[5] = read-out: IC50(2), high affinity (HA) site

SMILES	proportion of HA binding sites [1]	proportion of SHA binding sites [1]	IC50 [1, 4] [nM]	IC50 [1, 5] [nM]	high-affinity (HA) binding site [2] [nM]	HA site ([2]; AD hippocampus, ^3H-MK6240) [nM]	super-high affinity (SHA) site ([2]; AD hippocampus, ^3H-MK6240) [pM]	proportion of HA site ([2]; AD hippocampus) [%]	proportion of SHA site ([2]; AD hippocampus) [%]	IC50 (tau, PSP FC homogenates) [nM]	proportion of HA binding sites (tau, CBD FC homogenates; vs 1 nM ^3H-PI2620) [%]	proportion of SHA binding sites (tau, CBD FC homogenates; vs 1 nM ^3H-PI2620) [%]	IC50 (tau, CBD FC homogenates; vs 1 nM ^3H-PI2620, read-out: IC50(1), SHA site) [nM]	IC50 (tau, CBD FC homogenates; vs 1 nM ^3H-PI2620, read-out: IC50(2), HA site) [nM]	in vitro binding using autoradiography [3]
Nc1c(F)ccc2cnc(-n3ccc4ccncc43)cc12 [MK6240]	> 70% and 76%	> 20% and 24%	0.0027	4.5	0.15 to 0.32	12	1	42	58						
Fc1cc(-c2ccc3c(n2)[nH]c2ccncc23)ccn1 [PI2620]	> 70% and 77%	> 20% and 23%	0.0081	4.9	8.5					2.5	54	46	0.0056	7.7	
Fc1ccc(-c2ccc3c(n2)[nH]c2cnccc23)cn1 [RO948]	> 70% and 79%	> 20% and 21%	0.0058	6.8	18										
Fc1ccc(-c2ccc3c(c2)[nH]c2ccncc23)cn1 [^18F-AV-1451]															no in vitro binding
